{"source": "patent US6369208B1", "about": "“Capped synthetic RNA, analogs, and aptamers” (Merck & Co., Inc., priority 1995, dated 2002)", "key": {"influenza endonuclease [1]": {"target": "T1, influenza endonuclease (Influenza A virus, UniProt P03428+P03433)"}, "influenza endonuclease [2]": {"target": "T1, influenza endonuclease", "remark": "listed apart in the source"}, "influenza endonuclease [3]": {"target": "T1, influenza endonuclease", "remark": "listed apart in the source"}}}
{"substance": "m^7GpppG(2′-OMe)UAUUAAUA(3′-dA)-3′ [SEQ.ID.NO.:3]", "values": [{"measurement": "binding of the labeled capped 10-mer displaced by competition with unlabeled competitor", "setting": "influenza endonuclease [1]", "value": 95, "unit": "%"}, {"measurement": "saturation amplitude", "setting": "influenza endonuclease [1]", "value": 5.2, "unit": "nM"}, {"measurement": "inhibition of influenza endonuclease (in words)", "setting": "influenza endonuclease [2]", "value": "potent inhibitor of influenza endonuclease"}]}
{"substance": "pppG(2′-OMe)UAUUAAUA(3′dA)-3′ [SEQ.ID.NO.:21]", "values": [{"measurement": "binding of the labeled capped 10-mer competed by unlabeled competitor", "setting": "influenza endonuclease [1]", "value": 10, "unit": "%"}]}
{"substance": "pppG(2′-OMe)UUUUUAUUUUUAAUUUUC-3′ [SEQ.ID.NO.:4]", "values": [{"measurement": "Km", "setting": "influenza endonuclease [3]", "value": 0.4, "unit": "nM"}, {"measurement": "site of cleavage by influenza endonuclease", "setting": "influenza endonuclease [3]", "value": "between the two A's at positions 13-14"}]}
